Test results: PubChem BioAssay AID256 (DTP/NCI, 2004)
Toxic doses and inconclusive results are not listed.

System: CD2F1 mice, L1210 leukemia ip, survival T/C
Assay: NCI In Vivo Anticancer Drug Screen. Data for tumor model L1210 Leukemia (intraperitoneal) in CD2F1 (CDF1) mice
Conditions: endpoint: mean survival time, schedule: Q01DX009 (ip), vehicle: saline with Tween-80, higher = longer survival
Outline: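 Compound-dosed mice with transplantable tumor versus matched vehicle controls; endpoint ratio T/C reported.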

In the case of `COC(CCl)(CCl)OC`, the T/C (dose: 10.0 mg/kg/injection) is reported as 87 % of control and the T/C (dose: 20.0 mg/kg/injection) is reported as 90 % of control.
